Measurements: ChEMBL document CHEMBL4613209, “Quinolone hybrids and their anti-cancer activities: An overview” (Eur J Med Chem, 2019)

How the values were obtained:
Type in all cases: functional, cell-based
[1] = test system: CHO; experiment: Cytotoxicity against CHO cells assessed as reduction in cell viability; settings: Cricetulus griseus
[2] = test system: HL-60; experiment: Cytotoxicity against human HL60 cells assessed as reduction in cell viability
[3] = test system: L1210; experiment: Cytotoxicity against mouse L1210 cells assessed as reduction in cell viability
[4] = test system: HL-60; experiment: Antiproliferative activity against human HL60 cells after 24 to 72 hrs by MTT assay
[5] = test system: Hep 3B2; experiment: Antiproliferative activity against human Hep3B cells after 24 to 72 hrs by MTT assay
[6] = test system: L1210; experiment: Antiproliferative activity against mouse L1210 cells after 24 to 72 hrs by MTT assay
[7] = test system: SMMC-7721; experiment: Antiproliferative activity against human SMMC7721 cells after 24 to 72 hrs by MTT assay

Row | IC50 [4] [µM] | IC50 [6] [µM] | IC50 [7] [µM] | Compound | IC50 [1] [µM] | IC50 [2] [µM] | IC50 [3] [µM] | IC50 [5] [µM]
1 | 1.4 to 52.3 | 1.4 to 52.3 | 1.4 to 52.3 | CC1COc2c(N3CCN(C)CC3)c(F)cc3c(=O)c(-c4nnc(N/N=C/c5ccc([N+](=O)[O-])c6c5OCO6)[nH]4)cn1c23 (centres undefined) | – | – | – | 1.4 to 52.3
2 | 1.4 to 52.3 | 1.4 to 52.3 | 1.4 to 52.3 | CCn1cc(C(=O)N/N=C/c2ccc3c(c2)OCO3)c(=O)c2cc(F)c(N3CCNCC3)cc21 | – | – | – | 1.4 to 52.3
3 | 1.4 to 52.3 | 1.4 to 52.3 | 1.4 to 52.3 | CC1COc2c(N3CCN(C)CC3)c(F)cc3c(=O)c(-c4nnc(SCC(=O)N/N=C/c5ccc(F)cc5)[nH]4)cn1c23 (centres undefined) | – | – | – | 1.4 to 52.3
4 | 1.4 to 52.3 | 1.4 to 52.3 | 1.4 to 52.3 | CCn1cc(-c2nnc(SCC(=O)N/N=C/c3ccc([N+](=O)[O-])cc3)o2)c(=O)c2cc(F)c(N3CCN(C)CC3)cc21 | – | – | – | 1.4 to 52.3
5 | 1.4 to 52.3 | 1.4 to 52.3 | 1.4 to 52.3 | CCn1cc(C(=O)N/N=C/c2ccccc2)c(=O)c2cc(F)c(N3CCNCC3)cc21 | – | – | – | 1.4 to 52.3
6 | 1.4 to 52.3 | 1.4 to 52.3 | 1.4 to 52.3 | COc1cc(/C=N/Nc2nnc(-c3cn4c5c(c(N6CCN(C)CC6)c(F)cc5c3=O)OCC4C)[nH]2)cc(OC)c1OC (centres undefined) | – | – | – | 1.4 to 52.3
7 | 1.4 to 52.3 | 1.4 to 52.3 | 1.4 to 52.3 | CCn1cc(C(=O)N/N=C/c2ccc([N+](=O)[O-])cc2)c(=O)c2cc(F)c(N3CCNCC3)cc21 | – | – | – | 1.4 to 52.3
8 | 1.4 to 52.3 | 1.4 to 52.3 | 1.4 to 52.3 | COc1ccc(/C=N/Nc2nnc(-c3cn4c5c(c(N6CCN(C)CC6)c(F)cc5c3=O)OCC4C)[nH]2)cc1 (centres undefined) | – | – | – | 1.4 to 52.3
9 | 1.4 to 52.3 | 1.4 to 52.3 | 1.4 to 52.3 | CC1COc2c(N3CCN(C)CC3)c(F)cc3c(=O)c(-c4nnc(N/N=C/c5ccc(Cl)cc5)[nH]4)cn1c23 (centres undefined) | – | – | – | 1.4 to 52.3
10 | 1.4 to 52.3 | 1.4 to 52.3 | 1.4 to 52.3 | CCn1cc(-c2nnc(SCC(=O)N/N=C/c3ccc(C#N)cc3)o2)c(=O)c2cc(F)c(N3CCN(C)CC3)cc21 | – | – | – | 1.4 to 52.3

Further lines, the molecule ahead of its results:

Row | Compound | IC50 [4] [µM] | IC50 [6] [µM] | IC50 [7] [µM] | IC50 [1] [µM] | IC50 [2] [µM] | IC50 [3] [µM] | IC50 [5] [µM]
11 | CC1COc2c(N3CCN(C)CC3)c(F)cc3c(=O)c(-c4nnc(-c5cn(C6CC6)c6cc(N7CCN(C)CC7)c(F)cc6c5=O)o4)cn1c23 (centres undefined) | – | – | – | 0.26 to 14.5 | 0.26 to 14.5 | 0.26 to 14.5 | –
12 | CN1CCN(c2cc3c(cc2F)c(=O)c(-c2nnc4sc(-c5cn(C6CC6)c6nc(N7CCN(C)CC7)c(F)cc6c5=O)nn24)cn3C2CC2)CC1 | – | – | – | 0.12 to 5.2 | 0.12 to 5.2 | 0.12 to 5.2 | –
13 | CCn1cc(-c2nnc(SCC(=O)N/N=C/c3ccc(OC)cc3)o2)c(=O)c2cc(F)c(N3CCN(C)CC3)cc21 | 1.4 to 52.3 | 1.4 to 52.3 | 1.4 to 52.3 | – | – | – | 1.4 to 52.3
14 | O=C(N/N=C/c1ccc(F)cc1)c1cn(C2CC2)c2cc(N/N=C/c3ccc(F)cc3)c(F)cc2c1=O | – | – | – | 1.5 to 23.5 | 1.5 to 23.5 | 1.5 to 23.5 | –
15 | CCN1CCN(c2cc3c(cc2F)c(=O)c(-c2nn4c(-c5cn(C6CC6)c6cc(N7CCNCC7)c(F)cc6c5=O)nnc4s2)cn3C2CC2)CC1 | – | – | – | 0.12 to 5.2 | 0.12 to 5.2 | 0.12 to 5.2 | –
16 | CC1COc2c(N3CCN(C)CC3)c(F)cc3c(=O)c(-c4nn5c(-c6cn(C7CC7)c7cc(N8CCNCC8)c(F)cc7c6=O)nnc5s4)cn1c23 (centres undefined) | – | – | – | 14.2 to 23.7 | 14.2 to 23.7 | 14.2 to 23.7 | –
17 | CN1CCN(c2cc3c(nc2F)c(=O)c(-c2nnc4sc(-c5cn(C6CC6)c6cc(N7CCNCC7)c(F)cc6c5=O)nn24)cn3C2CC2)CC1 | – | – | – | 0.12 to 5.2 | 0.12 to 5.2 | 0.12 to 5.2 | –
18 | CCn1cc(-c2nnc(SCC(=O)N/N=C/c3ccc4c(c3)OCO4)o2)c(=O)c2cc(F)c(N3CCN(C)CC3)cc21 | 1.4 to 52.3 | 1.4 to 52.3 | 1.4 to 52.3 | – | – | – | 1.4 to 52.3
19 | CCN1CCN(c2cc3c(cc2F)c(=O)c(-c2nnc4sc(-c5cn(C6CC6)c6cc(N7CCNCC7)c(F)cc6c5=O)nn24)cn3C2CC2)CC1 | – | – | – | 0.12 to 5.2 | 0.12 to 5.2 | 0.12 to 5.2 | –
20 | CCN1CCN(c2cc3c(cc2F)c(=O)c(-c2nnc4sc(-c5cn(CC)c6cc(N7CCN(C)CC7)c(F)cc6c5=O)nn24)cn3C2CC2)CC1 | – | – | – | 0.12 to 5.2 | 0.12 to 5.2 | 0.12 to 5.2 | –
21 | CC1COc2c(N3CCN(C)CC3)c(F)cc3c(=O)c(-c4nn5c(-c6cn(C7CC7)c7cc(N8CCN(C)CC8)c(F)cc7c6=O)nnc5s4)cn1c23 (centres undefined) | – | – | – | 14.2 to 23.7 | 14.2 to 23.7 | 14.2 to 23.7 | –
22 | CCN1CCN(c2cc3c(cc2F)c(=O)c(-c2nnc4sc(-c5cn6c7c(c(N8CCN(C)CC8)c(F)cc7c5=O)OCC6C)nn24)cn3C2CC2)CC1 (centres undefined) | – | – | – | 14.2 to 23.7 | 14.2 to 23.7 | 14.2 to 23.7 | –
23 | CCN1CCN(c2cc3c(cc2F)c(=O)c(-c2nnc4sc(-c5cn6c7c(c(N8CCN(C)CC8)c(F)cc7c5=O)OC[C@@H]6C)nn24)cn3C2CC2)CC1 | – | – | – | 0.12 to 5.2 | 0.12 to 5.2 | 0.12 to 5.2 | –
24 | CCN1CCN(c2cc3c(cc2F)c(=O)c(-c2nnc4sc(-c5cn(C6CC6)c6cc(N7CCN(C)CC7)c(F)cc6c5=O)nn24)cn3C2CC2)CC1 | – | – | – | 0.12 to 5.2 | 0.12 to 5.2 | 0.12 to 5.2 | –
